In data set [1] the test system is LEUKEMIA cancer cell lines. The note with it: log of concentration causing 50% lethality; arithmetic average of six to eight leukemia cell lines.
Data set [2] has as its system MELANOMA cancer cell lines. The settings on record: log of concentration causing 50% lethality; arithmetic average of six to eight melanoma cell lines.
Data set [3] concerns RENAL cancer cell lines. The note with it: log of concentration causing 50% lethality; arithmetic average of six to eight renal cell lines.
Experimental: (§1) For each histologic cancer type, the average −log LC50 value was determined from an NCI panel consisting of six to eight human cancer cell lines. {Paull, D. K.; Shoemaker, R. H.; Hodes, L.; Monks, A.; Scudiero, D. A.; Rubinstein, L.; Plowman, J.; Boyd, M. R. Display and Analysis of Differential Activity of Drugs Against Human Tumor Cell Lines: Development of Mean Graph and COMPARE Algorithm.
For data set [4], the system named is COLON cancer cell lines. The settings on record: log of concentration causing 50% lethality; arithmetic average of six to eight colon cell lines.
Data set [5] concerns OVARIAN cancer cell lines. The note with it: log of concentration causing 50% lethality; arithmetic average of six to eight ovarian cell lines.
Experimental: as §1
Data set [6] concerns PROSTATE cancer cell lines. The note with it: log of concentration causing 50% lethality; arithmetic average of six to eight prostate cell lines.
Experimental: as §1
For data set [7], the system named is BREAST cancer cell lines. The note with it: log of concentration causing 50% lethality; arithmetic average of six to eight breast cell lines.
Experimental: as §1
Data set [8] relates to B-16 melanoma. The settings on record: for area under the tumor-growth curve (AUC): control 11.39; for in vivo activity (effect on tumor mass), in words: B16 syngraft, dosing on days 1, 5, and 9 after implantation of 10^5 cells.
Experimental: This compound was studied at three dose levels: 2, 3 and 5 mg/Kg IP on days 1, 5, and 9 after tumor implantation into the front flank muscle. Shown in the plot are the AUC values as a function of time for each dosage. The control was obtained with drug-free animals.
Data set [9] concerns 600 bp calf thymus DNA. The data set is described as follows: Alkylation of DNA by reduced indoloquinones. The note with it: FIG. 2.
The subject of data set [10] is CNS cancer cell lines. The settings on record: log of concentration causing 50% lethality; arithmetic average of six to eight CNS cell lines.
For data set [11], the system named is NSC LUNG cancer cell lines. The note with it: log of concentration causing 50% lethality; arithmetic average of six to eight NSC lung cell lines.
The target in data set [12] is T1, rat liver DT-diaphorase (Rattus norvegicus, UniProt P05982).
T1 sequence (P05982 2-274 limits assumed): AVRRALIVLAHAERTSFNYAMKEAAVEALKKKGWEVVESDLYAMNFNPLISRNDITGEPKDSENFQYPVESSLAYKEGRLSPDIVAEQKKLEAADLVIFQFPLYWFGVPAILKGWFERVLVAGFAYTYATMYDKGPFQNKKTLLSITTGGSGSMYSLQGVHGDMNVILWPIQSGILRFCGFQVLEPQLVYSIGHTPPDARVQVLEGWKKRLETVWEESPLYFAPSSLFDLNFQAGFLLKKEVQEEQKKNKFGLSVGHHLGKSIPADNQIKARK
The note with it: FIG. 2.

The mark [13] stands for this setting: 1 mg/Kg IP on days 1, 5, and 9 after tumor implantation.
Where [14] appears, read: 3 mg/Kg IP on days 1, 5, and 9 after tumor implantation.

Where two headings read alike, the source gives them in different places.

As to `CC(=O)OC1CCc2c1[nH]c1c2C(=O)C(C)=C(N2CC2)C1=O` (centres unmarked) [Cyclopent[b]indole 3c, 3-Acetoxy-6-aziridinyl-1,4-dihydro-7-methyl-(2H) cyclopent [b]indole-5,8-dione], the “Log LC50” value in data set [1] is on record as −4.3 moles/liter; in [2] it was −4.99 moles/liter; in [3], −4.72 moles/liter; in data set [4], −4.85 moles/liter; in [5] it was −4.366 moles/liter; in data set [6] it was −4.63 moles/liter. In addition, the “Log LC50” value in data set [7] is listed as −4.53 moles/liter; in [10], −4.7 moles/liter; in data set [11], −4.65 moles/liter. Besides, the “area under the tumor-growth curve (AUC)” value amounted to 6.67 in data set [8] (setting [13]) and 6.92 in [8] (setting [14]). In addition, the “in vivo activity (effect on tumor mass), in words” value (shortened to “in vivo activity”) in data set [8] is recorded as “reduce the tumor mass substantially”. Besides, in data set [9], the “% reductive alkylation of DNA, in words” value is listed as “highest % alkylation of DNA”.

Regarding `CC(=O)OCc1[nH]c2c(c1C)C(=O)C(C)=C(N1CC1)C2=O` [Indole 2c, 2-(Acetoxymethyl)-6-aziridinyl-3,5-dimethylindole-4,7-dione], the “Log LC50” value is more than −4 moles/liter in data set [1]; −4.15 moles/liter in data set [2]; −4.14 moles/liter in [3]; more than −4 moles/liter in data set [4]; more than −4 moles/liter in data set [5]; more than −4 moles/liter in data set [6]. For the same compound, the “Log LC50” value in data set [7] is recorded as more than −4 moles/liter; in data set [10], more than −4 moles/liter; in [11], −4.1 moles/liter. The “area under the tumor-growth curve (AUC)” value came to 13.83 in [8] (setting [13]) and 8.59 in [8] (setting [14]). The “in vivo activity” value in data set [8] was “inactive at both concentrations”.

As to `COC1CCc2c1[nH]c1c2C(=O)C(C)=C(N2CC2)C1=O` (centres unmarked) [Cyclopent[b]indole 3d, 6-Aziridinyl-1,4-dihydro-3-methoxy-7-methyl-(2H) cyclopent[b]indole-5,8-dione], the “Log LC50” value in data set [1] is listed as −4.06 moles/liter; in [2], −4.92 moles/liter; in [3] it was −4.58 moles/liter; in data set [4], −4.318 moles/liter; in data set [5] it was more than −4 moles/liter; in data set [6] it was −4.46 moles/liter. Further, the “Log LC50” value is listed as −4.33 moles/liter in data set [7], −4.17 moles/liter in data set [10] and −4.2 moles/liter in data set [11].

On to `CC(=O)OCc1[nH]c2c(c1C)C(=O)C(N1CC1)=C(C)C2=O` [Indole 1c, 2-(Acetoxymethyl)-5-aziridinyl-3,6-dimethylindole-4,7-dione], for which the “Log LC50” value in data set [1] was more than −4 moles/liter; in data set [2] it was −5.64 moles/liter; in [3], −4.54 moles/liter; in data set [4], −5.08 moles/liter; in data set [5], −4.46 moles/liter; in data set [6] it was −5.01 moles/liter. For the same compound, the entries for the “Log LC50” value in data set [7], in data set [10] and in data set [11] were −4.57 moles/liter, −4.83 moles/liter and −4.48 moles/liter, respectively. In addition, the “area under the tumor-growth curve (AUC)” value was 10.94 in data set [8] (setting [13]) and 15.82 in [8] (setting [14]). Also, in [8], the “in vivo activity” value is recorded as “decreased tumor mass only at the 3 mg/kg dose”.

Regarding `CC1=C(N2CC2)C(=O)c2[nH]c3c(c2C1=O)CCC3O` (centres unmarked) [Cyclopent[b]indole 3b, 6-Aziridinyl-1,4-Dihydro-3-hydroxy-7-methyl-(2H) cyclopent[b]indole-5,8-dione], the “Log LC50” value in [1] is reported as −4.06 moles/liter; in [2], −4.85 moles/liter; in data set [3], −4.73 moles/liter; in data set [4], −4.45 moles/liter; in [5] it was −4.05 moles/liter; in [6], −4.5 moles/liter. Besides, the “Log LC50” value is −4.47 moles/liter in data set [7], −4.54 moles/liter in [10] and −4.22 moles/liter in data set [11].

In the case of `CC(=O)OC1CCc2c3c(n(C(C)=O)c21)C(=O)C(N1CC1)=C(C)C3=O` (centres unmarked) [Cyclopent[b]indole 14, 3-Acetoxy-4-acetyl-6-aziridinyl-1,4-Dihydro-7-methyl-(2H) cyclopent[b]indole-5,8-dione], the “Log LC50” value was more than −4 moles/liter in data set [1]; −5.06 moles/liter in data set [2]; −4.78 moles/liter in data set [3]; −4.77 moles/liter in data set [4]; −4.18 moles/liter in data set [5]; −4.71 moles/liter in [6]. The “Log LC50” value is −4.5 moles/liter in data set [7], −4.75 moles/liter in [10] and −4.42 moles/liter in data set [11]. In addition, the “in vivo activity” value in [8] is given as “enhances antitumor activity greatly”. Also, the “% reductive alkylation of DNA, in words” value in [9] is given as “readily alkylates DNA”. Besides, in [12], the “DT-diaphorase substrate activity, in words” value is reported as “excellent substrate for DT-diaphorase”.

Regarding `CC1=C(N2CC2)C(=O)c2[nH]c3c(c2C1=O)CCC3=O` [Cyclopent[b]indole 3e, 6-Aziridinyl-1,4-dihydro-7-methyl-(2H) cyclopent [b]indole-3,5,8-trione], the “Log LC50” value in data set [1] is more than −4 moles/liter; in data set [2], −5.99 moles/liter; in data set [3], −5.34 moles/liter; in [4] it was −5.44 moles/liter; in [5], −4.86 moles/liter; in [6] it was −4.8 moles/liter. Besides, the “Log LC50” value was −4.9 moles/liter in [7], −5.13 moles/liter in [10] and −5.37 moles/liter in [11]. Moreover, the “in vivo activity” value in [8] is “completely inactive”.

With `CC1=C(N2CC2)C(=O)c2[nH]c(CO)c(C)c2C1=O` [Indole 2b, 6-Aziridinyl-2-(hydroxymethyl)-3,5-dimethylindole-4,7-dione], the “Log LC50” value in data set [1] was more than −4 moles/liter; in data set [2], −4.4 moles/liter; in data set [3] it was −4.23 moles/liter; in data set [4], −4.2 moles/liter; in [5], more than −4 moles/liter; in data set [6] it was −4.2 moles/liter. Also, the entries for the “Log LC50” value in data set [7], in data set [10] and in data set [11] were −4.05 moles/liter, −4.05 moles/liter and −4.1 moles/liter, respectively.

`CC1=C(N2CC2)C(=O)c2c([nH]c(C)c2C)C1=O` [Indole 1a, 5-Aziridinyl-2,3,6-trimethylindole-4,7-dione]: the “Log LC50” value in [1] is more than −4 moles/liter; in data set [2], −4.42 moles/liter; in data set [3], more than −4 moles/liter; in data set [4], more than −4 moles/liter; in data set [5], more than −4 moles/liter; in data set [6] it was more than −4 moles/liter. Further, the “Log LC50” value in data set [7] is more than −4 moles/liter; in data set [10], more than −4 moles/liter; in data set [11], −4.29 moles/liter.

With `CC1=C(N2CC2)C(=O)c2c([nH]c(CO)c2C)C1=O` [Indole 1b, 5-Aziridinyl-2-(hydroxymethyl)-3,6-dimethylindole-4,7-dione], the “Log LC50” value in [1] was more than −4 moles/liter; in data set [2], −5.39 moles/liter; in [3] it was −4.53 moles/liter; in data set [4], −4.32 moles/liter; in data set [5], more than −4 moles/liter; in data set [6] it was −4.78 moles/liter. For the same compound, the “Log LC50” value is listed as −4.56 moles/liter in [7], more than −4 moles/liter in data set [10] and −4.37 moles/liter in data set [11].
